Columns and labels:
Rattus norvegicus [1] = assay: Compound was evaluated for pole-climb avoidance in rat after peroral administration.; assay type: functional; conditions: po
Rattus norvegicus [2] = assay: Compound was evaluated for inhibition of apomorphine-induced stereotypy behavior in rats after intraperitoneal administration.; assay type: functional; conditions: ip
Rattus norvegicus [3] = assay: Compound was evaluated for pole-climb avoidance (escape failures) in rat after peroral administration.; assay type: functional; conditions: po
Rattus norvegicus [4] = assay: Compound was evaluated for intracranial self-stimulation in rat after intraperitoneal administration.; assay type: functional; conditions: ip
Mus musculus [5] = assay: Compound was evaluated for inhibition of apomorphine-induced climbing in mouse after peroral administration.; assay type: functional; conditions: po
Mus musculus [6] = assay: Compound was evaluated for inhibition of apomorphine-induced climbing in mouse after intraperitoneal administration.; assay type: functional; conditions: ip
D(1A) dopamine receptor = D(1A) dopamine receptor (Rattus norvegicus, UniProt P18901); assay: Compound was evaluated for in vitro binding affinity towards Dopamine receptor D1 in striatum using [3H]- SCH 23390 as radioligand; assay type: tissue-based
Sequence of D(1A) dopamine receptor (P18901 whole entry): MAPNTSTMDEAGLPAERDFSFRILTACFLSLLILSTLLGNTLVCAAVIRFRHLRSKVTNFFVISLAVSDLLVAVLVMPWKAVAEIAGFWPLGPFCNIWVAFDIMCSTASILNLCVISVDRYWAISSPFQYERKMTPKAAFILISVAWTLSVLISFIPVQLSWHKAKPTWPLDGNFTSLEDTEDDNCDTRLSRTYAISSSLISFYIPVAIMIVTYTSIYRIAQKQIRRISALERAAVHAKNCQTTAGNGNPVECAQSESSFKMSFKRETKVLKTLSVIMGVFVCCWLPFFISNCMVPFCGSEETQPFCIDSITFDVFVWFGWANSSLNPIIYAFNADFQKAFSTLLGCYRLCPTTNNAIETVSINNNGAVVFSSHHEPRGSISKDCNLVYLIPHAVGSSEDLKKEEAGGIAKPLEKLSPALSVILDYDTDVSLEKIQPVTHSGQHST

[7] = target: Serotonin 2 (5-HT2) receptor (Rattus norvegicus, UniProt P30994+P08909+P14842); assay: Compound was evaluated for in vitro binding affinity towards serotonin 5-hydroxytryptamine 2 receptor in rat cortex using [3H]- spiperone as radioligand
[8] = target: T1, 5-hydroxytryptamine receptor 1A (Rattus norvegicus, UniProt P19327); assay: Compound was evaluated for in vitro binding affinity towards serotonin 5-hydroxytryptamine 1A receptor receptor in rat hippocampus using [3H]8-OH-DPAT as radioligand; assay type: tissue-based
T1 sequence (P19327 whole entry): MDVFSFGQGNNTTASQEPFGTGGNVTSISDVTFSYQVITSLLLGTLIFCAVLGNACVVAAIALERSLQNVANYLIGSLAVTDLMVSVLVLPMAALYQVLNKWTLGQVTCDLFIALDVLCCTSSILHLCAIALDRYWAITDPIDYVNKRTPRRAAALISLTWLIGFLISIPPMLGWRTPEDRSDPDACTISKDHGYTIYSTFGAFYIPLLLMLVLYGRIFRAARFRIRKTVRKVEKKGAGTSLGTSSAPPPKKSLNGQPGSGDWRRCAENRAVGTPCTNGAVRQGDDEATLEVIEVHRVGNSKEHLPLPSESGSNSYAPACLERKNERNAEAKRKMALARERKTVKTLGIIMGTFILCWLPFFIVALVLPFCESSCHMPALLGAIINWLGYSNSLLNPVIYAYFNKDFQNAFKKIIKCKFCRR

Compound | ED50 (Rattus norvegicus [1]) | ED50 (Rattus norvegicus [2]) | ED50 (Rattus norvegicus [3]) | ED50 (Rattus norvegicus [4]) | ED50 (Mus musculus [5]) | ED50 (Mus musculus [6]) | Ki (D(1A) dopamine receptor) | Ki [7] | Ki [8]
O=C(CCCN1CCC(O)(c2ccc(Cl)cc2)CC1)c1ccc(F)cc1 [HALOPERIDOL] | 1.1 mg/kg | 0.576 mg/kg | 14.1 mg/kg | 0.077 mg/kg | – | – | – | – | –
CN1CCN(C2=Nc3cc(Cl)ccc3Nc3ccccc32)CC1 [CLOZAPINE] | 12.7 mg/kg | > 40 mg/kg | 33.1 mg/kg | – | – | – | – | – | –
CC1SC(C)(C)C(=O)N1CCCCN1CCN(c2csc3cc(F)ccc23)CC1 (stereo unspecified) | 5.46 mg/kg | 61.4 mg/kg | > 20 mg/kg | 4.7 mg/kg | 15.4 mg/kg | 2.5 mg/kg | 2740 nM | 20 nM | 40 nM

— ChEMBL document CHEMBL1126190, “3-[4-[1-(6-Fluorobenzo[b]thiophen-3-yl)-4-piperazinyl]butyl]- 2,5,5-trimethyl-4-thiazolidinone: a new atypical antipsychotic agent for the treatment of schizophrenia” (J Med Chem, 1992)
